# Experimental data reported in patent US20160220710A1, “COMPOSITIONS AND METHODS FOR DELIVERING PHARMACEUTICAL AGENTS” (THE REGENTS OF THE UNIVERSITY OF MICHIGAN, priority 2015, published 2016).
# Assays:
# [1] = test system: F4/80(+) peritoneal macrophages (PMΦ); assay: Flow cytometry of peritoneal exudate of CFZ-treated mice; type: in vivo
# Excerpt: Mice (4 week old, male C57Bl6) were purchased from the Jackson Laboratory (Bar Harbor, Me.) and acclimatized for 1 week in a specific-pathogen-free animal facility. Animal care was provided by the University of Michigan's Unit for Laboratory Animal Medicine (ULAM) and the experimental protocol was approved by the Committee on Use and Care of Animals in accordance with NIH guidelines. An oral diet containing CFZ was fed to mice as previously described (Baik J, et al., Antimicrob. Agents Chemother. 2013; 57:1218-30; Baik J, et al., PLoS One 2012; 7:e47494; Keswani R K, et al., Mol. Pharm. 2015:10). CFZ (C8895; Sigma-Aldrich, St. Louis, Mo., USA) was dissolved in sesame oil (Roland, China, or Shirakiku, Japan) to achieve a concentration of 3 mg/ml, which was mixed with Powdered Lab Diet 5001 (PMI International, Inc., St. Louis, Mo., USA) to produce a 0.03% drug to powdered feed mix. A corresponding amount of sesame oil was mixed with chow for vehicle treatment (control mice). On average, food consumption for a 25 g mouse was 3 g per day, resulting in 10 mg of bioavailable drug/kg per day. For CFZ treatment, the drug diet was administered for 8 weeks followed by regular chow for 8 weeks (washout phase).
# Peritoneal lavage was done as previously reported before and after the initiation of CFZ or vehicle treatment (1 week, 2 weeks, 4 weeks, 8 weeks and 16 weeks (8 weeks drug feed+8 weeks washout phase)) (16). Mice were euthanized as described above followed by sterilization of the outer skin with 70% ethanol. A small incision was made along the midline of the abdomen followed by abdominal skin retraction up to the thoracic boundary and the animal extremities to expose the intact peritoneal wall. A smaller incision was then made on the peritoneal wall to expose the cavity. The entire peritoneal cavity was washed with ice-cold sterile PBS+5% FBS (5-10 ml) and collected as peritoneal exudate. The exudate was then centrifuged (100×g for 5 min, 4° C.) and resuspended in 1.5 ml of PBS+5% FBS. Cells were counted using a hemocytometer for viable cells using Trypan Blue and for CLDI-containing cells.
# Peritoneal and alveolar lavage was performed as stated before to obtain the respective exudates. Purified Fc block CD16/32 (1 μl) was added for every 100,000 cells for analysis. For CLDI fluorescence signal experiments, cells were pelleted by centrifugation (100×g for 5 min) followed by resuspension in PBS+5% FBS (500 μl). For functional assays, antibodies—anti-F4/80-eFluor 450 (48-4801, Affymetrix eBioscience, San Diego, Calif., USA), anti-CD86-FITC (553691, BD Biosciences, San Jose, Calif., USA), anti-CD206-FITC (141704, BioLegend®, San Diego, Calif., USA), anti-CD11c-eFluor450 (48-0114, Affymetrix eBioscience) and anti-Ly6G-eFluor450 (48-5931, Affymetrix eBioscience) were added to the cell suspension at a loading of 1 μg/100,000 cells (1:10 volumetric ratio) and incubated in the dark (30 min, 4° C.). Following incubation, the samples were diluted with PBS and pelleted by centrifugation (100×g, 5 min). The supernatant was discarded and the pellet was re-suspended in 300 μl of PBS+2% FBS. Just prior to analysis, PI (5 μl per 1×10^6 cells) was added to the cells to assess viability. Sample measurements were done on a MoFlo® Astrios™ EQ. All gating and analysis was done on at least 10,000 live cells (PI(−) cell population) using FlowJo. CLDI(+) cells were gated either using 640 671/30 or 640 795/70. […] These cells also had extremely high side-scatter that were measured as saturated signals. This small sub-population of cells were not considered for evaluation of change of CD206 expression in the peritoneal macrophages.
# IL-1RA, TNFα, IL-1β = assay: Serum cytokines of CFZ-treated mice; type: in vivo
# Protocol: Clofazimine (CFZ, Sigma-Aldrich, C8895) was prepared in sesame oil (Shirakiku, Japan, or Roland, China) and Powdered Lab Diet 5001 (PMI International, Inc., St. Louis, Mo.) and orally administrated to Wild-type (WT) C57BL/6 mice or IL-1RA^−/− (4-5 week old, Jackson Laboratory, Bar Harbor, Me.) for up to 8 weeks ad libitum as previously described (Baik et al., 2013, supra; Baik et al., 2011, supra). Control mice were fed with the same diet without CFZ. The animal protocol was approved by the University of Michigan's Animal Care and Use Committee in accordance with the National Institutes of Health guidelines (UCUCA #PRO0005111).
# Mouse Bronchoalveolar Lavage (BAL) Harvest and Isolation of Alveolar Macrophages, Immunohistochemistry and Imaging, SDS-PAGE and Western Blot, Cytokine Measurements
structure (smiles),measurement,setting,value
"CC(C)/N=c1\cc2n(-c3ccc(Cl)cc3)c3ccccc3nc-2cc1Nc1ccc(Cl)cc1 [CFZ, 3-(p-chloroanilino)-10-(p-chlorophenyl)-2, 10-dihydro-2-isopropyliminophenazine]",% CLDI(+) cells identified as F4/80(+) CD86(+),[1]; 4 weeks post-drug feeding,~38%
same,% CLDI(+) cells identified as F4/80(+) CD206(+),[1]; 4 weeks post-drug feeding,~20%
same,ratiometric CD86 median surface expression in CLDI(+) relative to CLDI(−),[1]; 4 weeks post-drug feeding,~1.17
same,% of F4/80(+) PMΦ that were CLDI(+),[1]; 8 weeks of washout,~25%
same,ratiometric CD86 median surface expression in CLDI(+) relative to CLDI(−),[1]; 8 weeks post-drug feeding,0.95
same,% CLDI(+) cells identified as F4/80(+) CD86(+),[1]; 8 weeks+8 weeks washout,~70%
same,% CLDI(+) cells identified as F4/80(+) CD206(+),[1]; 8 weeks+8 weeks washout,~81%
same,CLDI accumulation within F4/80(+) CD86(+) cells,[1]; 8 weeks+8 weeks washout,~95%
same,CLDI(+)% as a proportion of F4/80(+) CD206(+) cells,[1]; 8 weeks+8 weeks washout,~93%
same,% of F4/80(+) PMΦ that were CLDI(+),[1]; after 4 weeks of CFZ treatment,~38%
same,CLDI accumulation within F4/80(+) CD86(+) cells,[1]; after 4 weeks of CFZ treatment,~31%
same,CLDI(+)% as a proportion of F4/80(+) CD206(+) cells,[1]; after 4 weeks of CFZ treatment,~15%
same,% of F4/80(+) PMΦ that were CLDI(+),[1]; after 8 weeks of treatment,~61%
same,% of total CLDI(+) cells localized to F4/80(+) peritoneal macrophages,[1]; all measured time points,> 85%
same,serum IL-1RA levels,"IL-1RA, TNFα, IL-1β; 8 weeks",increase in serum IL-1RA levels
same,TNFα or IL-1β in the serum,"IL-1RA, TNFα, IL-1β; all conditions",not possible to detect
